# US20260373164A1, “4(RS)-4-F4-NEUROPROSTANE DERIVATIVES (4-F4T-NEUROP) AND THEIR USE IN TREATING VENTILATOR INDUCED DIAPHRAGMATIC DYSFUNCTION AND OTHER DISEASES” (INSTITUT NATIONAL DE LA SANTÉ ET DE LA RECHERCHE MÉDICALE, priority 2022, published 2026)
# Entries after “also recorded” stand apart in the source; their conditions may differ.
# Legend:
# [1] = system: ventricular myocytes (type 2 ryanodine receptor); assay: Anti-arrhythmic properties in isolated ventricular myocytes (calcium transients and cell contraction, IonOptix); format: cell-based, murine; conditions: 10 nM isoproterenol; for anti-arrhythmic properties (ryanodine dependent arrhythmic cells): VB574 10 nM, 100 nM or 1 μM, compound IV 1 μM, 1 Hz stimulation
# Experimental: Compounds 20,21,22-trinor-4(RS)-4-F4t-NeuroP (compound of Formula III, VB574) and monohydroxylated derivative of 4-F4t-NeuroP (Compound IV) were evaluated for their anti-arrhythmic properties. Calcium transients and cell contraction was measured by the photometric system ionOptix®.
# The photometric system IonOptix® can provide real-time, simultaneous acquisition of fluorescence photometry with sarcomere length measurements. For the study of isolated myocytes, the system includes a pacemaker that offers full control of the stimulation pulse duration, the frequency and the voltage. Thus, the photometric system IonOptix® puts in correlation the calcium transients and the shortening of the electrically stimulated myocytes (1 Hz, 20 V, FIG. 7). Calcium was studied by the use of a ratiometric fluorescent calcium probe (indo-1-AM, excitation wavelength 360±10 nm, emission wavelength at 405±10 nm and 485±10 nm).
# To measure the intracellular calcium, the first step was to bring ventricular myocytes load into contact with an amount of indo-1-AM. To make it liposoluble, indo-1 was esterified on its carboxylic functions to give indo-1-AM. Once present in the cell, esterases allow the release of Indo-1 carboxylic functions enabling it to bind to the intracellular calcium. The incorporation time was predetermined to 30 minutes. This time was chosen following experiments using different times of incubation and 30 minutes was the time giving a good ratio/noise ratio and no obvious perturbation of cellular calcium homeostasis. The incubation time of the probe is critical because too low load generates a weak signal while excessive exposure will excessively increase the buffering capacity of the cytoplasm for calcium.
# Once loaded and the cells arranged on the measuring system by means of a tank containing Tyrode salt solution (450 μL), the probe was excited by a xenon lamp at a wavelength of 360 nm. Through an optical wavelength filter, the apparatus collects the fluorescence emitted from the Indo-1 at two different wavelengths: 405±10 nm and 485±10 nm. The first wavelength represents the fluorescence of the probe bound to calcium and the second wavelength represents the fluorescence of the free probe. The ratio of these two wavelengths reflects the concentration of intracellular calcium. It is thus possible to observe calcium transients in ventricular myocytes systole but also to observe the diastolic calcium when the stimulation is stopped.
# To measure the contraction, striation of cardiac cells due to the presence of sarcomeres was used. […] The recorded signal is similar to a sine function. […]
# Thus, to evaluate the potential RyR stabilizing effect of the 4-F4T-neuroprostane derivatives (compounds III and IV), the compounds were applied, and the percentage of arrhythmic cells was measured.
# RyR2 = conditions: previously reported (ref. 21); cited from earlier work
smiles,measurement,setting,value
CC/C=C\C/C=C\C/C=C\C[C@H]1CC[C@H](O)[C@H]1/C=C/C(O)CCC(=O)O (some centres unmarked) [compound IV],anti-arrhythmic properties (ryanodine dependent arrhythmic cells),[1],show anti-arrhythmic properties indicative of an interaction with the RyR
CC(C)NCC(O)c1ccc(O)c(O)c1 (centres unmarked) [isoproterenol],amplitude of contractions,[1],increase in the amplitude of contractions
same,extrasystole ventricular contraction (ESV),[1],promotes the development of ESV; also recorded: promote the development of ExtraSystole Ventricular contraction (ESV)
"CC/C=C\C/C=C\C/C=C\C/C=C\C/C=C\C/C=C\CCC(=O)O [DHA, docosahaenoic acid]","cardiac anti-arrhythmic effect, RyR2 stabilization",RyR2,"could exert a cardiac anti-arrhythmic effect due to a stabilization of the cardiac isoform of ryanodine receptor, RyR2"
"CC/C=C\C/C=C\C[C@@H]1[C@H](/C=C/C(O)CCC(=O)O)[C@@H](O)C[C@H]1O (mixture of isomers) [compound III, (E)-6-((1S,2R,3R,5S)-3,5-dihydroxy-2-((2Z,5Z)-octa-2,5-dien-1-yl)cyclopentyl)-4-hydroxyhex-5-enoic Acid]",anti-arrhythmic properties (ryanodine dependent arrhythmic cells),[1],show anti-arrhythmic properties indicative of an interaction with the RyR
